Drawing on BindingDB's records for doi:10.1021/jm401056w (Takeda Pharmaceutical, 2013), this text covers IC50 for 2 compounds.

The nature of this assay: Inhibition of human KISS1R expressed in CHO cells assessed as inhibition of KISS1R-mediated cell growth after 3 days by cell counting kit-8 assay.

Each structure is given as a SMILES string.

With `CNC(N)=NCCC[C@H](NC(=O)[C@H](CC(C)C)NC(=O)CNC(=O)[C@H](Cc1ccccc1)NC(=O)[C@H](CO)NC(=O)[C@H](CC(N)=O)NC(=O)[C@H](Cc1c[nH]c2ccccc12)NC(=O)[C@H](CC(N)=O)NC(=O)[C@H](N)Cc1ccc(O)cc1)C(=O)N[C@@H](Cc1ccccc1)C(N)=O`, the IC50 was 0.087 µM.

Consider `CC(C)C[C@H](NC(=O)CNC(=O)[C@H](Cc1ccccc1)NC(=O)[C@H](CO)NC(=O)[C@H](CC(N)=O)NC(=O)[C@H](Cc1c[nH]c2ccccc12)NC(=O)[C@H](CC(N)=O)NC(=O)[C@@H](N)Cc1ccc(O)cc1)C(=O)N[C@@H](CCCN=C(N)N)C(=O)N[C@@H](Cc1ccccc1)C(N)=O` [(2S)-2-[(2S)-2-[(2S)-2-[(2S)-2-amino-3-(4-hydroxyphenyl)propanamido]butanediamido]-3-(1H-indol-3-yl)propanamido]-N-[(1S)-1-{[(1S)-1-[({[(1S)-1-{[(1S)-4-carbamimidamido-1-{[(1S)-1-carbamoyl-2-phenylethyl]carbamoyl}butyl]carbamoyl}-3-methylbutyl]carbamoyl}methyl)carbamoyl]-2-phenylethyl]carbamoyl}-2-hydroxyethyl]butanediamide], for which the IC50 was determined as 8.51 µM.
